Source: the supplement of paper PMC10307832

Tests used:
Experiment in all cases: relative viability (nuclei count vs DMSO), 5 days (fraction); higher = more cells survive
COR-L 105 = test system: COR-L 105
Method in brief: (§1)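 Relative viability divides the nuclei count in treated wells by that in vehicle wells. Lung cancer cell lines were seeded in 1536-well plates, dosed by pin tool the next day, and fixed and stained after 5 days in one step with final 0.05% Triton X-100, 1% formaldehyde and 1 ug/ml Hoechst. Dosing was a single drug or a fixed anchor-drug dose plus five library-drug doses (not always all listed) in √10 steps, and values are medians of duplicate plates imaged at 4×.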

COR-L23 = test system: COR-L23
Method in brief: as §1

HARA = test system: HARA
Method in brief: as §1

HCC-15 = test system: HCC-15
Method in brief: as §1

HOP-62 = test system: HOP-62
Method in brief: as §1

NCI-H1355 = test system: NCI-H1355
Method in brief: as §1

NCI-H1395 = test system: NCI-H1395
Method in brief: as §1

NCI-H1734 = test system: NCI-H1734
Method in brief: as §1

NCI-H1755 = test system: NCI-H1755
Method in brief: as §1

NCI-H1792 = test system: NCI-H1792
Method in brief: as §1

NCI-H1793 = test system: NCI-H1793
Method in brief: as §1

NCI-H1993 = test system: NCI-H1993
Method in brief: as §1

NCI-H2009 = test system: NCI-H2009
Method in brief: as §1

NCI-H2170 = test system: NCI-H2170
Method in brief: as §1

NCI-H2228 = test system: NCI-H2228
Method in brief: as §1

NCI-H2347 = test system: NCI-H2347
Method in brief: as §1

NCI-H647 = test system: NCI-H647
Method in brief: as §1

NCI-H838 = test system: NCI-H838
Method in brief: as §1

SK-MES-1 = test system: SK-MES-1
Method in brief: as §1

UMC-11 = test system: UMC-11
Method in brief: as §1

COc1cc2nccc(Oc3ccc(NC(=O)Nc4cc(C)on4)c(Cl)c3)c2cc1OC [Tivozanib] + CC1(C)CCC(c2ccc(Cl)cc2)=C(CN2CCN(c3ccc(C(=O)NS(=O)(=O)c4ccc(N[C@H](CCN5CCOCC5)CSc5ccccc5)c(S(=O)(=O)C(F)(F)F)c4)cc3)CC2)C1 [Navitoclax] (partner 0.5 µM)
relative viability (COR-L 105; first compound 0.01581 µM): 0.835 | relative viability (COR-L 105; first compound 0.05 µM): 0.829 | relative viability (COR-L 105; first compound 0.1581 µM): 1.17 | relative viability (COR-L 105; first compound 0.5 µM): 0.743 | relative viability (COR-L23; first compound 0.005 µM): 0.955 | relative viability (COR-L23; first compound 0.01581 µM): 0.998 | relative viability (COR-L23; first compound 0.05 µM): 1.04 | relative viability (COR-L23; first compound 0.1581 µM): 0.935 | relative viability (COR-L23; first compound 0.5 µM): 0.817 | relative viability (HARA; first compound 0.005 µM): 1.11 | relative viability (HARA; first compound 0.01581 µM): 1.04 | relative viability (HARA; first compound 0.05 µM): 1.19 | relative viability (HARA; first compound 0.1581 µM): 1.19 | relative viability (HARA; first compound 0.5 µM): 1.15 | relative viability (HCC-15; first compound 0.005 µM): 0.719 | relative viability (HCC-15; first compound 0.01581 µM): 0.676 | relative viability (HCC-15; first compound 0.05 µM): 0.67 | relative viability (HCC-15; first compound 0.1581 µM): 0.742 | relative viability (HCC-15; first compound 0.5 µM): 0.728 | relative viability (HOP-62; first compound 0.005 µM): 0.996 | relative viability (HOP-62; first compound 0.01581 µM): 1.08 | relative viability (HOP-62; first compound 0.05 µM): 1.07 | relative viability (HOP-62; first compound 0.1581 µM): 1.12 | relative viability (HOP-62; first compound 0.5 µM): 0.844 | relative viability (NCI-H1355; first compound 0.005 µM): 0.844 | relative viability (NCI-H1355; first compound 0.01581 µM): 0.989 | relative viability (NCI-H1355; first compound 0.05 µM): 0.996 | relative viability (NCI-H1355; first compound 0.5 µM): 1 | relative viability (NCI-H1395; first compound 0.005 µM): 1.14 | relative viability (NCI-H1395; first compound 0.01581 µM): 1.08 | relative viability (NCI-H1395; first compound 0.05 µM): 1.08 | relative viability (NCI-H1395; first compound 0.1581 µM): 1.24 | relative viability (NCI-H1395; first compound 0.5 µM): 0.945 | relative viability (NCI-H1734; first compound 0.005 µM): 0.865 | relative viability (NCI-H1734; first compound 0.01581 µM): 0.804 | relative viability (NCI-H1734; first compound 0.05 µM): 0.823 | relative viability (NCI-H1734; first compound 0.1581 µM): 0.734 | relative viability (NCI-H1734; first compound 0.5 µM): 0.82 | relative viability (NCI-H1755; first compound 0.005 µM): 0.953 | relative viability (NCI-H1755; first compound 0.01581 µM): 0.949 | relative viability (NCI-H1755; first compound 0.05 µM): 1.01 | relative viability (NCI-H1755; first compound 0.1581 µM): 0.932 | relative viability (NCI-H1755; first compound 0.5 µM): 0.916 | relative viability (NCI-H1792; first compound 0.005 µM): 0.657 | relative viability (NCI-H1792; first compound 0.01581 µM): 0.638 | relative viability (NCI-H1792; first compound 0.05 µM): 0.657 | relative viability (NCI-H1792; first compound 0.1581 µM): 0.505 | relative viability (NCI-H1792; first compound 0.5 µM): 0.849 | relative viability (NCI-H1793; first compound 0.005 µM): 0.351 | relative viability (NCI-H1793; first compound 0.01581 µM): 0.466 | relative viability (NCI-H1793; first compound 0.05 µM): 0.413 | relative viability (NCI-H1793; first compound 0.5 µM): 0.438 | relative viability (NCI-H1993; first compound 0.005 µM): 0.86 | relative viability (NCI-H1993; first compound 0.01581 µM): 0.857 | relative viability (NCI-H1993; first compound 0.05 µM): 0.967 | relative viability (NCI-H1993; first compound 0.1581 µM): 0.668 | relative viability (NCI-H1993; first compound 0.5 µM): 0.836 | relative viability (NCI-H2009; first compound 0.005 µM): 1.11 | relative viability (NCI-H2009; first compound 0.01581 µM): 1.16 | relative viability (NCI-H2009; first compound 0.05 µM): 1.19 | relative viability (NCI-H2009; first compound 0.1581 µM): 1.24 | relative viability (NCI-H2009; first compound 0.5 µM): 1.14 | relative viability (NCI-H2170; first compound 0.005 µM): 0.537 | relative viability (NCI-H2170; first compound 0.01581 µM): 0.568 | relative viability (NCI-H2170; first compound 0.05 µM): 0.677 | relative viability (NCI-H2170; first compound 0.5 µM): 0.584 | relative viability (NCI-H2228; first compound 0.005 µM): 1.03 | relative viability (NCI-H2228; first compound 0.01581 µM): 0.891 | relative viability (NCI-H2228; first compound 0.05 µM): 0.754 | relative viability (NCI-H2228; first compound 0.1581 µM): 0.9 | relative viability (NCI-H2228; first compound 0.5 µM): 1.24 | relative viability (NCI-H2347; first compound 0.005 µM): 0.735 | relative viability (NCI-H2347; first compound 0.01581 µM): 0.765 | relative viability (NCI-H2347; first compound 0.05 µM): 0.847 | relative viability (NCI-H2347; first compound 0.1581 µM): 0.735 | relative viability (NCI-H2347; first compound 0.5 µM): 0.804 | relative viability (NCI-H647; first compound 0.005 µM): 1.12 | relative viability (NCI-H647; first compound 0.01581 µM): 1.24 | relative viability (NCI-H647; first compound 0.05 µM): 1.21 | relative viability (NCI-H647; first compound 0.1581 µM): 1.19 | relative viability (NCI-H647; first compound 0.5 µM): 1.03 | relative viability (NCI-H838; first compound 0.005 µM): 1.09 | relative viability (NCI-H838; first compound 0.01581 µM): 1.16 | relative viability (NCI-H838; first compound 0.05 µM): 1.2 | relative viability (NCI-H838; first compound 0.5 µM): 1.12 | relative viability (SK-MES-1; first compound 0.005 µM): 1.25 | relative viability (SK-MES-1; first compound 0.01581 µM): 1.16 | relative viability (SK-MES-1; first compound 0.05 µM): 1.4 | relative viability (SK-MES-1; first compound 0.1581 µM): 1.17 | relative viability (SK-MES-1; first compound 0.5 µM): 1.18 | relative viability (UMC-11; first compound 0.005 µM): 0.314 | relative viability (UMC-11; first compound 0.01581 µM): 0.322 | relative viability (UMC-11; first compound 0.05 µM): 0.306 | relative viability (UMC-11; first compound 0.5 µM): 0.329
